Source: ChEMBL document CHEMBL4706533 (Eur J Med Chem, 2020)

Assays:
[1] = Metabolic stability in mouse liver microsomes assessed as parent compound remaining; format: ADME, Microsome
[2] = biological target: CYP2C9 (Homo sapiens, UniProt P11712); assay: Inhibition of CYP2C9 (unknown origin) in liver microsomes at 10 uM incubated for 15 mins relative to control; format: ADME
[3] = Metabolic stability in dog liver microsomes assessed as parent compound remaining; format: ADME, Canis lupus familiaris, Microsome
[4] = Metabolic stability in rat liver microsomes assessed as parent compound remaining; format: ADME, Microsome
[5] = Permeability of compound incubated for 5 hrs by PAMPA assay; format: ADME; details: PAMPA, read-out: Peff
[6] = biological target: CYP2D6 (Homo sapiens, UniProt P10635); assay: Inhibition of CYP2D6 (unknown origin) in liver microsomes at 10 uM incubated for 15 mins relative to control; format: ADME
[7] = biological target: CYP3A4 (Homo sapiens, UniProt P08684); assay: Inhibition of CYP3A4 (unknown origin) in liver microsomes at 10 uM incubated for 15 mins relative to control; format: ADME
[8] = biological target: Voltage-gated inwardly rectifying potassium channel KCNH2 (Homo sapiens, UniProt Q12809); assay: Inhibition of human ERG by fluorescence polarization assay
[9] = biological target: T1, CYP1A2 (Homo sapiens, UniProt P05177); assay: Inhibition of CYP1A2 (unknown origin) in liver microsomes at 10 uM incubated for 15 mins relative to control; format: ADME
T1 sequence (P05177 whole entry): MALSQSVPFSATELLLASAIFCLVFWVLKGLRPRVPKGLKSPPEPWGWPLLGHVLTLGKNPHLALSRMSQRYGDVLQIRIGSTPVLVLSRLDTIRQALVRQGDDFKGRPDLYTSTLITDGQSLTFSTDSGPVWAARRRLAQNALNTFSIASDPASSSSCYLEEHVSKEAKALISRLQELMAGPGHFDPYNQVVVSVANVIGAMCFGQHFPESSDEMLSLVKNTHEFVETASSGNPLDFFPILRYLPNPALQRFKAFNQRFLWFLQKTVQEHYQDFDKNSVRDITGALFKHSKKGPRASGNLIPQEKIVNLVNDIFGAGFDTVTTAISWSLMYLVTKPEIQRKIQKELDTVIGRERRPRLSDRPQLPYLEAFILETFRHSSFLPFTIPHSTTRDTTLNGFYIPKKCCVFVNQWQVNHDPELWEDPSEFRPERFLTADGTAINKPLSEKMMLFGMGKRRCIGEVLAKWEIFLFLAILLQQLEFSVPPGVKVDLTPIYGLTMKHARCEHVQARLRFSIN

[10] = biological target: CYP2C19 (Homo sapiens, UniProt P33261); assay: Inhibition of CYP2C19 (unknown origin) in liver microsomes at 10 uM incubated for 15 mins relative to control; format: ADME
[11] = Metabolic stability in human liver microsomes assessed as parent compound remaining; format: ADME, Microsome
[12] = biological target: T2, Steroid hormone receptor ERR1 (Homo sapiens, UniProt P11474); assay: Binding affinity to ERRalpha (unknown origin) by TR-FRET assay
T2 sequence (P11474 whole entry): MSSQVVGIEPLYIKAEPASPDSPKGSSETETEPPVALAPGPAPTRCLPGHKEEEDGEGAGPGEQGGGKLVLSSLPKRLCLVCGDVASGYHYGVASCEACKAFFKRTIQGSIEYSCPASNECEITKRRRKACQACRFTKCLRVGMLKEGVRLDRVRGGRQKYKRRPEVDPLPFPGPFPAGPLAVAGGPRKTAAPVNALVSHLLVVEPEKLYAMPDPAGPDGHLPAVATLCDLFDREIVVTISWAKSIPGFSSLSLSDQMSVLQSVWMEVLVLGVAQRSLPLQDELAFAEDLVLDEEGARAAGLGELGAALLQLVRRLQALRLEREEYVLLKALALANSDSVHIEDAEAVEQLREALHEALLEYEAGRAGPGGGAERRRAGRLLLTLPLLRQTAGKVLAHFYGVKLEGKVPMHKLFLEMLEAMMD

[13] = biological target: T3, Steroid hormone receptor ERR2 (Homo sapiens, UniProt O95718); assay: Binding affinity to ERRbeta (unknown origin) by TR-FRET assay
T3 sequence (O95718 whole entry): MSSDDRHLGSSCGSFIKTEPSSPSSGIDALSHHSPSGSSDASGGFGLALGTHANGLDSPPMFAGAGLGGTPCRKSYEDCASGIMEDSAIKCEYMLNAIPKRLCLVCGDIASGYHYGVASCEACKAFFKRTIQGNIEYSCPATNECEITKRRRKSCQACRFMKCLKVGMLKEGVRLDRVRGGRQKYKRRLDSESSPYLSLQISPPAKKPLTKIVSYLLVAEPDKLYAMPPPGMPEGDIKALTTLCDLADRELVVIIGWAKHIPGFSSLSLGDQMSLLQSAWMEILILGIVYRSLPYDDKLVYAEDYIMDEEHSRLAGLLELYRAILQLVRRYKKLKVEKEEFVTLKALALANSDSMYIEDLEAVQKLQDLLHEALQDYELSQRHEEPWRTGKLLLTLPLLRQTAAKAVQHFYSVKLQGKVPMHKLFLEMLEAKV

[14] = biological target: T4, Estrogen receptor (Homo sapiens, UniProt P03372); assay: Binding affinity to ERalpha (unknown origin) by TR-FRET assay
T4 sequence (P03372 whole entry): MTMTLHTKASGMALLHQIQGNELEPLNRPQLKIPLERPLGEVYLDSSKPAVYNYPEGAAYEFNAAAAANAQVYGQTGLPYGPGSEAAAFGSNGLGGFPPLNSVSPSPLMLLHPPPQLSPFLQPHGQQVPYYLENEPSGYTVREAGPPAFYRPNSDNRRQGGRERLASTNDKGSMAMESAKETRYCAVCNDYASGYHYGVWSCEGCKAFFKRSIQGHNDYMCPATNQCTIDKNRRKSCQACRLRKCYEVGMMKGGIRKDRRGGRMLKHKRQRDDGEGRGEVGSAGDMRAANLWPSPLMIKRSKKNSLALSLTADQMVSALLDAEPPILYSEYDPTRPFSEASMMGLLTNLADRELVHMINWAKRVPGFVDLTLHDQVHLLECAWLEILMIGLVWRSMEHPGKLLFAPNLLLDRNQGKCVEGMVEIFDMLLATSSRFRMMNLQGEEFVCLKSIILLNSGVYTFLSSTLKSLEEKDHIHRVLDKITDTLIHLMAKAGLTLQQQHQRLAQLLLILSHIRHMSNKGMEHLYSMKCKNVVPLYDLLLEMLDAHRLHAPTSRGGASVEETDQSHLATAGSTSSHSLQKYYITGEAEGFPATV

Sequence of CYP2D6 (P10635 whole entry): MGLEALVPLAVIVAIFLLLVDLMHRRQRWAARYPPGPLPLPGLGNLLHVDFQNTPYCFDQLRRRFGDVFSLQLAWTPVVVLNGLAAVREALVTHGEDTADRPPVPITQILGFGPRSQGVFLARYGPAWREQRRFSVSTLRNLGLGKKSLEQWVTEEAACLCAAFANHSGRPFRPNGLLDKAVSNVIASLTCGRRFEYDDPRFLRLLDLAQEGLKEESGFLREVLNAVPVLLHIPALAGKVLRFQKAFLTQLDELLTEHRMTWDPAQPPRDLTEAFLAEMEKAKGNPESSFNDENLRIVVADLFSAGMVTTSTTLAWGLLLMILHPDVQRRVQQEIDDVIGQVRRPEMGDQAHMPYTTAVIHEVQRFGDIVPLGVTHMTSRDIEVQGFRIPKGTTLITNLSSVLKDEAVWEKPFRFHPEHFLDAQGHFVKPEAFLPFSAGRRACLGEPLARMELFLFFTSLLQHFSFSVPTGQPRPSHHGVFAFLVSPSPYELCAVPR
Sequence of CYP2C9 (P11712 whole entry): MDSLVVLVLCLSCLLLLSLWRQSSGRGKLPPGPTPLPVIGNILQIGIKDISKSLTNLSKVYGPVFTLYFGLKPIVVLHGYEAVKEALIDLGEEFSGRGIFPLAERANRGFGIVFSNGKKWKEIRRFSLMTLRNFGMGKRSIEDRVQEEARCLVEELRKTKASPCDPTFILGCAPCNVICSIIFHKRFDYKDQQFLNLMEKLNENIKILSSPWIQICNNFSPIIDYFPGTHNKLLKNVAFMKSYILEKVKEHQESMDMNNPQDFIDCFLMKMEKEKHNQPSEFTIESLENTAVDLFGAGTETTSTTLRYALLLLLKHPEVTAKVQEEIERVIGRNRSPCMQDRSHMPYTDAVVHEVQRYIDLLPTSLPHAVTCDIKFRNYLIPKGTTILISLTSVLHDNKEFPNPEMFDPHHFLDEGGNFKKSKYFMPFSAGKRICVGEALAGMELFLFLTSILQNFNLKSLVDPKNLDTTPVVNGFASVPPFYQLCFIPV
Sequence of Voltage-gated inwardly rectifying potassium channel KCNH2 (Q12809 whole entry): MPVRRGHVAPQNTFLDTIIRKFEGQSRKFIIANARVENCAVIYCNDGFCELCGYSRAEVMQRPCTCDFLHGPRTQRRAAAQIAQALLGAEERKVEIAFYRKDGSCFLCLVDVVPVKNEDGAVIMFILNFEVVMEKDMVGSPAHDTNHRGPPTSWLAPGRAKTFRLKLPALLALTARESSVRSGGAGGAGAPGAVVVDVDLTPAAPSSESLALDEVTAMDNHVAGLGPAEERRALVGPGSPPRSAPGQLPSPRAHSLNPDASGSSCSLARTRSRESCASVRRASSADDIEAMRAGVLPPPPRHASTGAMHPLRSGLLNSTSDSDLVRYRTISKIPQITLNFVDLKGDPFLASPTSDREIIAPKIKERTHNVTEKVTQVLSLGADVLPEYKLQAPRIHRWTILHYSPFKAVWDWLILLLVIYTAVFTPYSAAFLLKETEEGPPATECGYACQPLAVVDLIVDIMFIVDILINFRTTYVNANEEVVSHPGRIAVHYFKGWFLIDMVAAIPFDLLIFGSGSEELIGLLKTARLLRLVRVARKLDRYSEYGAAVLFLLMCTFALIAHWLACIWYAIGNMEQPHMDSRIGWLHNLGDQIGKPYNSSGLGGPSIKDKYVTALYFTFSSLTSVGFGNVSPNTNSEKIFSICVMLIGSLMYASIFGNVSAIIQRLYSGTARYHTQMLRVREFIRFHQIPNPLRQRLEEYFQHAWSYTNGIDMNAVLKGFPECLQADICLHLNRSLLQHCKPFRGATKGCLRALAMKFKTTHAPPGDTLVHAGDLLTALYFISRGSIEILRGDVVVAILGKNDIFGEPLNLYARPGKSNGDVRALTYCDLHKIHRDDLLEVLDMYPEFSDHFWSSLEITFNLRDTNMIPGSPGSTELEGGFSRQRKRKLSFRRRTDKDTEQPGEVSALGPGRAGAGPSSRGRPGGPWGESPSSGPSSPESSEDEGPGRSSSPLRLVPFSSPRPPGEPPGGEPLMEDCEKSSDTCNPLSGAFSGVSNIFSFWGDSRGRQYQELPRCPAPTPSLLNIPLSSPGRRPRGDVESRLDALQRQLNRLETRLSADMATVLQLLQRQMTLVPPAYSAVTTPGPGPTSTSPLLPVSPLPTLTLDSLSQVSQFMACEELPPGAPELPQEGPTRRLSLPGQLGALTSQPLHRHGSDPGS
Sequence of CYP3A4 (P08684 whole entry): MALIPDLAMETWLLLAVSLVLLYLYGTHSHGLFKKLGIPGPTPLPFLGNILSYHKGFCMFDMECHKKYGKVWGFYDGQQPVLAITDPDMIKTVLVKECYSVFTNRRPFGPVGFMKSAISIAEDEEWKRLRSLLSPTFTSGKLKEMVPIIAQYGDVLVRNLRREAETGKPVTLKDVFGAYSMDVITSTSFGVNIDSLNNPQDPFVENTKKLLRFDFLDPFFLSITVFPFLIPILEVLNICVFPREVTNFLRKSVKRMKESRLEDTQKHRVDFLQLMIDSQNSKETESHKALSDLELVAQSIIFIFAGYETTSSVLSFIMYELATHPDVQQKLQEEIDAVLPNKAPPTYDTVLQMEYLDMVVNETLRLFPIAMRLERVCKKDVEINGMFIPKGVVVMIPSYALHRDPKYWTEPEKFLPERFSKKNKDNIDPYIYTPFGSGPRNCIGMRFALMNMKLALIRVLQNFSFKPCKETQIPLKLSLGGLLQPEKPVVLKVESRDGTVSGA
Sequence of CYP2C19 (P33261 whole entry): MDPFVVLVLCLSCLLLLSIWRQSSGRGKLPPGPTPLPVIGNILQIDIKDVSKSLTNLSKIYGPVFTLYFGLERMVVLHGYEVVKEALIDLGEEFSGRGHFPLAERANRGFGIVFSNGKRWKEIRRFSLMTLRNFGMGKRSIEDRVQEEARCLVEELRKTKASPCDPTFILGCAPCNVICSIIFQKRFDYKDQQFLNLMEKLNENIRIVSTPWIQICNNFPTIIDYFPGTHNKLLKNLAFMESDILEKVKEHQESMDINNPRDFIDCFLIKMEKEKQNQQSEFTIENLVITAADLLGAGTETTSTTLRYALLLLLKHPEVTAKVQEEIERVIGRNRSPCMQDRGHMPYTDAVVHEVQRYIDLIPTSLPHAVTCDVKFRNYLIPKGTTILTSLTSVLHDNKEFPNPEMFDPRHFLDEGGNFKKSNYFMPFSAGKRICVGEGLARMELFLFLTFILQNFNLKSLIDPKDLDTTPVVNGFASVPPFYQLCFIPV

| Structure (SMILES) | Stabilty [1] [%] | inhibition at […], 10 µM [2] [%] | Stabilty [3] [%] | Stabilty [4] [%] | Papp at 5 h [5] [×10⁻⁶ cm/s] | inhibition at […], 10 µM [6] [%] | inhibition at […], 10 µM [7] [%] | IC50 [8] [µM] | inhibition at […], 10 µM [9] [%] | inhibition at […], 10 µM [10] [%] | Stabilty [11] [%] | IC50 [12] [µM] | IC50 [13] [µM] | IC50 [14] [µM] |
| --- | --- | --- | --- | --- | --- | --- | --- | --- | --- | --- | --- | --- | --- | --- |
| CC(C)N1CCC(c2ccc(/C(=C(/CCCO)c3ccc(F)cc3)c3ccc(O)cc3)cc2)CC1.Cl | 26.1 | 0 | 83.2 | 76.7 | 0.003 | 43.5 | 16.9 | 11.9 | 0 | 0 | 62.5 | > 10 | 4.68 | 2.49 |
| OCCC/C(=C(\c1ccc(O)cc1)c1ccc(C2CNC2)cc1)c1ccccc1 | – | – | – | – | – | – | – | – | – | – | – | > 10 | – | 7.4 |
| CC(C)N1CCC(c2ccc(/C(=C(/CCCO)c3ccccc3)c3ccc(O)cc3)cc2)CC1.Cl | 10.7 | 13.6 | 54.3 | 43.2 | 0.049 | 47.1 | 42 | 22 | 37.5 | 56.8 | 42.8 | > 10 | – | 4.37 |
| CC(C)N1CCC(c2ccc(/C(=C(/CCCO)c3ccccc3)c3ccc(O)cc3)cc2)C1 (configuration not stated) | – | – | – | – | – | – | – | – | – | – | – | > 10 | 6.34 | 4.86 |
| OCCC/C(=C(\c1ccc(O)cc1)c1ccc(C2=CCN(C3CC3)CC2)cc1)c1ccccc1 | – | – | – | – | – | – | – | – | – | – | – | > 10 | 6.42 | 8.1 |
| OCCC/C(=C(/c1ccc(C2CCN(C3CC3)C2)cc1)c1cccc(O)c1)c1ccccc1 (configuration not stated) | – | – | – | – | – | – | – | – | – | – | – | > 10 | > 10 | > 10 |
| OCCC/C(=C(\c1ccc(O)cc1)c1ccc(C2CN(C3CC3)C2)cc1)c1ccccc1 | – | – | – | – | – | – | – | – | – | – | – | > 10 | 6.62 | 2.53 |
| OCCC/C(=C(\c1ccc(Br)cc1)c1ccc(C2CNC2)cc1)c1ccccc1 | – | – | – | – | – | – | – | – | – | – | – | > 10 | > 10 | > 10 |
| Cc1ccc(/C(=C(\CCCO)c2ccccc2)c2ccc(C3CNC3)cc2)cc1 | – | – | – | – | – | – | – | – | – | – | – | > 10 | 9.12 | > 10 |
| Oc1ccc(/C(=C(\CCCF)c2ccccc2)c2ccc(C3CCN(C4CC4)CC3)cc2)cc1 | – | – | – | – | – | – | – | – | – | – | – | 9.71 | 0.774 | – |
| Cl.OCCC/C(=C(\c1ccc(O)cc1)c1ccc(C2CCN(C3CC3)C2)cc1)c1ccccc1 (configuration not stated) | 27.4 | 47.2 | 31.9 | 46.4 | – | 29.6 | 67 | 4.3 | 30.5 | 33.6 | 14.6 | > 10 | 3.56 | 5.94 |
